Source: patent US12391683B2, “Therapeutic compounds and methods” (Actio Biosciences, Inc., priority 2022, dated 2025)

Assays:
TRPC6 channels = molecular target: T1, TRPC6 channels (Homo sapiens, UniProt Q9Y210); test: TRP Family FLIPR Assay, TRPC6; assay type: cell-based; settings: HEK293 cells
T1 construct: expressed in transfected cells; host or cells: HEK293
T1 sequence (Q9Y210 1-931): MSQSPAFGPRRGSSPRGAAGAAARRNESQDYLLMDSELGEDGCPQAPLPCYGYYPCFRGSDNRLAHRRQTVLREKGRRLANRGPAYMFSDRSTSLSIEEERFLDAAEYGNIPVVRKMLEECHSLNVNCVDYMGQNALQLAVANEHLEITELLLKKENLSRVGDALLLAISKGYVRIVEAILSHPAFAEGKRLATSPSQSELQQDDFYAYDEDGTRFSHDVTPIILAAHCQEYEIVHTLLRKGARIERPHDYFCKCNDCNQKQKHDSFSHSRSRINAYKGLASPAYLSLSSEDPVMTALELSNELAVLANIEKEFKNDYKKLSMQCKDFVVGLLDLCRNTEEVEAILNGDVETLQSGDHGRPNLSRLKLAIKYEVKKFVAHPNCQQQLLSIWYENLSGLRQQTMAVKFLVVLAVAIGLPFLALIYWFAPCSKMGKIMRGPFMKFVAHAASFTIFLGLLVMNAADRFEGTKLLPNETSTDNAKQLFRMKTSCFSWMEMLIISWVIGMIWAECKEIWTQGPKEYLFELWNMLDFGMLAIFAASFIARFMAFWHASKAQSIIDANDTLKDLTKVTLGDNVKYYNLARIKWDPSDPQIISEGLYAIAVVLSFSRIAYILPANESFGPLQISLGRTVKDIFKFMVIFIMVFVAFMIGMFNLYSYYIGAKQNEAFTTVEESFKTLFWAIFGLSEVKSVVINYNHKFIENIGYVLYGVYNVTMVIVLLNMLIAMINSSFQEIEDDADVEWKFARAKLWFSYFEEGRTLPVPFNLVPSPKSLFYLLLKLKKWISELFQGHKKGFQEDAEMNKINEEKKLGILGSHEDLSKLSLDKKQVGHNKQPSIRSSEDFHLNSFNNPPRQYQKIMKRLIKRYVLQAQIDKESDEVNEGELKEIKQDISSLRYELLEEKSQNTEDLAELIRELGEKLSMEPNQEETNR
Experimental: The compound of Example 5 was tested for selectivity against a panel of Human TRP family ion channels in a TRP Family FLIPR Assay as described below. • 1. TRPC3 channels (human TRPC3 variant 1 gene, expressed in HEK293 cells). • 2. TRPC4 channels (human TRPC4 gene, expressed in HEK293 cells). • 3. TRPC5 channels (human TRPC5 gene, expressed in HEK293 cells). • 4. TRPC6 channels (human TRPC6 gene, expressed in HEK293 cells). • 5. TRPM2 channels (human TRPM2 gene, transiently expressed in HEK293 cells). • 6. TRPM3 channels (human TRPM3 gene, transiently expressed in HEK293 cells). • 7. TRPM4 channels (human TRPM4 gene, expressed in CHO cells). • 8. […]
Data acquisition was performed via the FLIPR Control software supplied with the FLIPR System (MDS-AT) and data was analyzed using Microsoft Excel (Microsoft Corp., Redmond, WA) or GraphPad Prism. […]
[formula] where Base is the response at low concentrations of test article, Max is the maximum response at high concentrations, xhalf the EC50, or IC50, the concentration of test article producing either half-maximal activation or inhibition, and rate is the Hill coefficient. […] No assumptions about the fit parameters was made; the fit parameters were determined by the algorithm.
The effect of each test article was evaluated at eight (8) concentrations: 0.003, 0.01, 0.03, 0.1, 0.3, 1, 3 and 10 μM, n≤4 wells/concentration). […]

Hepatocytes = Hepatocytes predicted clearance, human

## CC(C)(O)c1cnc(N2C[C@@]3(CC[C@@H](F)[C@](C)(Cn4cnc5ccc(C#N)cc54)C3)OC2=O)cn1 (single isomer, unassigned) [Example 5]
TRPC6 channels; agonist mode, vs EMAX of Na-ATP 100 μM, read-out: EC50 hTRPC6
  EC50: > 10 µM
TRPC6 channels; antagonist mode, activated with 10 μM Na-ATP, 0.003-10 μM, read-out: IC50 hTRPC6
  IC50: > 10 µM
Hepatocytes
  Hepatocytes predicted clearance in human: < 0.17 mL/min/kg
